Measured values reported in the supplement of paper PMC10307832.

Legend:
Assay in all cases: relative viability (nuclei count vs DMSO), 5 days (fraction); higher = more cells survive
Tosedostat + OSI-027 = compound: CC(C)C[C@@H](C(=O)N[C@H](C(=O)OC1CCCC1)c1ccccc1)[C@H](O)C(=O)NO [Tosedostat] + COc1cccc2cc(-c3nc([C@H]4CC[C@H](C(=O)O)CC4)n4ncnc(N)c34)[nH]c12 [OSI-027] (partner 0.5 µM)
Method in brief: (§1)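 Lung cancer cell lines were pin-tool dosed in 1536-well plates on the day after seeding, with either a lone drug or a fixed anchor-drug dose plus five library-drug doses (not always all listed) in √10 steps. Nuclei were counted on 4× images after 5 days. Relative viability is the ratio of treated-well to vehicle-well nuclei counts, with each value a median of duplicate plates.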

[1] = compound: CC1=NN=C(O1)C2=NN=C(C=C2)N3CCC(CC3)OC4=C(C=CC(=C4)F)Cl + CS(=O)(=O)CCNCc1ccc(-c2ccc3ncnc(Nc4ccc(OCc5cccc(F)c5)c(Cl)c4)c3c2)o1 [Lapatinib] (partner 2 µM)
Method in brief: as §1

[2] = compound: CC1=NN=C(O1)C2=NN=C(C=C2)N3CCC(CC3)OC4=C(C=CC(=C4)F)Cl + Cc1nc(Nc2ncc(C(=O)Nc3c(C)cccc3Cl)s2)cc(N2CCN(CCO)CC2)n1 [Dasatinib] (partner 0.075 µM)
Method in brief: as §1

Tosedostat + Pictilisib = compound: CC(C)C[C@@H](C(=O)N[C@H](C(=O)OC1CCCC1)c1ccccc1)[C@H](O)C(=O)NO [Tosedostat] + CS(=O)(=O)N1CCN(Cc2cc3nc(-c4cccc5[nH]ncc45)nc(N4CCOCC4)c3s2)CC1 [Pictilisib] (partner 1 µM)
Method in brief: as §1

Row | Cell Line | relative viability (Tosedostat + OSI-027; first compound 0.02 µM) | relative viability (Tosedostat + OSI-027; first compound 0.06325 µM) | relative viability (Tosedostat + OSI-027; first compound 0.2 µM) | relative viability (Tosedostat + OSI-027; first compound 0.6325 µM) | relative viability (Tosedostat + OSI-027; first compound 2 µM) | relative viability ([1]; first compound 0.253 µM) | relative viability ([1]; first compound 0.8 µM) | relative viability ([1]; first compound 2.53 µM) | relative viability ([1]; first compound 8 µM) | relative viability ([2]; first compound 0.253 µM) | relative viability ([2]; first compound 0.8 µM) | relative viability ([2]; first compound 2.53 µM) | relative viability ([2]; first compound 8 µM) | relative viability (Tosedostat + Pictilisib; first compound 0.02 µM) | relative viability (Tosedostat + Pictilisib; first compound 0.06325 µM) | relative viability (Tosedostat + Pictilisib; first compound 0.2 µM) | relative viability (Tosedostat + Pictilisib; first compound 0.6325 µM) | relative viability (Tosedostat + Pictilisib; first compound 2 µM)
1 | NCI-H1793 | 0.264 | 0.271 | 0.293 | 0.258 | 0.24 | 0.75 | 0.688 | 0.822 | 0.581 | 0.378 | 0.342 | 0.448 | 0.371 | 0.484 | 0.31 | 0.507 | 0.403 | 0.329
2 | NCI-H727 | 0.583 | 0.636 |  | 0.492 | 0.419 | 0.815 | 0.721 | 1.01 | 0.795 | 0.328 |  | 0.441 | 0.384 | 0.36 | 0.267 | 0.276 | 0.373 | 0.29
3 | NCI-H661 | 0.706 | 0.767 | 0.714 | 0.648 | 0.561 | 0.541 | 0.477 | 0.542 | 0.417 | 0.785 | 0.608 |  | 0.68 | 0.399 | 0.444 | 0.366 | 0.432 | 0.301
4 | EKVX | 0.718 | 0.764 | 0.673 | 0.696 | 0.748 | 0.175 | 0.178 | 0.187 | 0.193 | 0.513 | 0.464 | 0.436 | 0.532 | 0.45 | 0.423 | 0.444 | 0.398 | 0.431
5 | NCI-H358 | 0.925 | 0.745 | 0.362 | 0.349 | 0.329 | 0.545 | 0.447 | 0.55 | 0.451 | 0.199 | 0.196 | 0.19 | 0.188 | 0.336 | 0.366 | 0.287 | 0.239 | 0.327
6 | EPLC-272H | 0.281 | 0.265 | 0.301 | 0.263 | 0.24 | 0.809 |  | 1.01 | 0.814 | 0.35 | 0.277 | 0.404 | 0.302 | 0.416 | 0.337 | 0.284 | 0.3 | 0.241
7 | NCI-H1666 | 0.839 | 0.856 | 0.822 | 0.835 | 0.845 | 0.303 | 0.554 | 0.608 | 0.428 | 0.612 | 0.526 | 0.58 | 0.543 | 0.603 | 0.404 | 0.5 | 0.367 | 0.291
8 | NCI-H1395 | 0.59 | 0.618 | 0.644 | 0.672 | 0.621 | 0.849 | 0.782 | 1.02 | 0.873 | 0.448 | 0.405 | 0.401 | 0.427 | 0.627 | 0.799 | 0.601 | 0.606 | 0.567
9 | NCI-H2405 | 0.662 | 0.637 | 0.707 | 0.596 | 0.585 | 0.756 | 0.809 | 0.859 | 0.754 | 0.199 | 0.207 | 0.179 | 0.181 | 0.578 | 0.499 | 0.478 | 0.467 | 0.445
10 | NCI-H2126 | 0.714 | 0.786 | 0.622 | 0.614 | 0.583 | 0.552 | 0.759 | 0.702 | 0.699 | 0.526 | 0.635 | 0.616 | 0.611 | 0.506 | 0.533 | 0.513 | 0.437 | 0.472
11 | NCI-H460 | 0.817 | 0.604 | 0.595 | 0.647 | 0.679 | 0.313 | 0.326 | 0.283 | 0.276 | 0.175 | 0.185 | 0.214 | 0.193 | 0.31 | 0.407 | 0.353 | 0.365 | 0.365
12 | NCI-H1993 | 0.555 | 0.476 | 0.564 | 0.548 | 0.442 | 0.778 | 0.801 | 0.737 | 0.695 | 0.537 | 0.564 | 0.768 | 0.549 | 0.818 | 0.863 | 1.01 | 0.84 | 0.688
13 | HCC-78 | 0.33 | 0.377 | 0.406 | 0.364 | 0.376 | 0.401 | 0.351 | 0.404 | 0.325 | 0.413 | 0.302 | 0.341 | 0.244 | 0.202 | 0.226 | 0.212 | 0.221 | 0.197
14 | LU99A | 0.324 | 0.286 | 0.292 | 0.312 | 0.249 | 1.02 | 0.952 | 0.978 | 0.816 | 0.517 | 0.674 | 0.728 | 0.509 | 0.343 | 0.317 | 0.295 | 0.258 | 0.221
15 | NCI-H520 | 0.215 | 0.285 |  | 0.335 | 0.22 | 0.888 | 0.84 | 0.82 | 0.764 | 0.258 |  | 0.211 | 0.222 | 0.261 | 0.277 | 0.3 | 0.283 | 0.396
16 | HCC-827 | 0.701 | 0.728 | 0.773 | 0.526 | 0.644 | 0.201 | 0.197 | 0.176 | 0.2 | 0.374 | 0.235 | 0.357 | 0.256 | 1.02 | 0.991 | 1.3 | 0.885 | 1.09
17 | NCI-H1975 | 0.822 | 0.743 | 0.708 | 0.552 | 0.424 |  | 0.746 | 0.859 | 0.753 |  | 0.361 | 0.581 | 0.546 | 0.28 | 0.311 | 0.252 | 0.25 | 0.241
18 | NCI-H2085 | 0.555 | 0.797 | 0.704 | 0.699 | 0.673 | 0.644 | 0.627 | 0.752 | 0.612 | 0.303 | 0.234 | 0.255 | 0.227 | 0.445 | 0.518 | 0.512 | 0.593 | 0.481
